Drawing on PubChem BioAssay AID651650 (Sanford-Burnham Center for Chemical Genomics, 2012), this text covers IC50 for 34 compounds.

Each structure is given as a SMILES string. Active and inactive are the calls of the source.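 Rule for the calls: active = mean IC50 below 20 µM in each of the two panels, so potent in both; inactive = the rest.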

In the assay the target is Neuropilin-1 (Homo sapiens) (UniProt O14786). As to the kind of experiment: blockers of CendR peptide binding to NRP-1 – biochemical, FP and AlphaScreen panel, dose response (AID 651650). Particulars: NRP-1 b1b2 / RPARPAR peptide binding, FP or AlphaScreen. (In general: Bead proximity is the source of the signal in Alpha formats.)
The mark [1] stands for this setting: AlphaScreen, run 1, individual panel run IC50.
Where [2] appears, read: FP, run 1, individual panel run IC50.
Setting [3] is: FP, run 2, individual panel run IC50.

Chain of Neuropilin-1 (Homo sapiens) (O14786 whole entry, looked up): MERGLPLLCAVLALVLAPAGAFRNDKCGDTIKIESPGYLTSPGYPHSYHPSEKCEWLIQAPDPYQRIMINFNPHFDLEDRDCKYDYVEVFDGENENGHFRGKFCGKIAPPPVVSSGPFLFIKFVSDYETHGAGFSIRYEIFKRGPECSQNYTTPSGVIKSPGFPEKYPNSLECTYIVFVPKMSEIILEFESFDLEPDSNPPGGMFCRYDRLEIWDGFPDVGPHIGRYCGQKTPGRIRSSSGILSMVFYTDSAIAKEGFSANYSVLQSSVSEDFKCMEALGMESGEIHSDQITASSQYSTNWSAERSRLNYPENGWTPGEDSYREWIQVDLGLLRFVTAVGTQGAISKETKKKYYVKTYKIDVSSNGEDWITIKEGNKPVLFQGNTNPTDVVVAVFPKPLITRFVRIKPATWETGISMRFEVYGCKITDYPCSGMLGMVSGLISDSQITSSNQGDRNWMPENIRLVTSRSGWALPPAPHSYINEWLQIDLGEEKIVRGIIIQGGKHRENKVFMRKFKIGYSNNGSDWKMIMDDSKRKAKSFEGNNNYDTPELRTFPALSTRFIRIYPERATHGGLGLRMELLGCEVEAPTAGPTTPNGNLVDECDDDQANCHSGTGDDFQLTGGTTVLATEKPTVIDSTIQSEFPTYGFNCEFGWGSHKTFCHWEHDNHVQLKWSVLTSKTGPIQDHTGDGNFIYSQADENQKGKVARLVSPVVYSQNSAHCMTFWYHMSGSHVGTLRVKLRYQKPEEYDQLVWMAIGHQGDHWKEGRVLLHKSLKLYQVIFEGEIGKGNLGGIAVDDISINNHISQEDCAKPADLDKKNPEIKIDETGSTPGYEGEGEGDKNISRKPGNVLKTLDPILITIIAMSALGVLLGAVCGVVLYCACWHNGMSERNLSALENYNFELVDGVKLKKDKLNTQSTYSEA

What is called IC50 is the midpoint of a concentration-inhibition curve. Take `O=C1CCN(Cc2ccccc2)S(=O)(=O)c2ccccc21`: the IC50 runs as follows: (AlphaScreen, mean of runs) > 100 µM (inactive); under setting [1], > 100 µM; (FP, mean of runs) > 95 µM (inactive); under setting [2], > 95 µM; under setting [3], > 95 µM.

For the compound `CN(C)/N=C/c1ccc(Sc2ccc([N+](=O)[O-])cc2[N+](=O)[O-])o1`, the IC50 entry (AlphaScreen, mean of runs) was “inactive”. Moreover, the IC50 by setting is: under setting [1], 85.7 µM; (FP, mean of runs) > 95 µM (inactive); under setting [2], > 95 µM; under setting [3], > 95 µM.

For `O=C(c1cccc(F)c1)N1CCN(c2ccc([N+](=O)[O-])c(N3CCCCC3)c2)CC1`, the IC50 (AlphaScreen, mean of runs) is > 100 µM (inactive); the IC50 under setting [1] was > 100 µM; the IC50 (FP, mean of runs) was > 95 µM (inactive); the IC50 under setting [2] was > 95 µM; the IC50 under setting [3] is > 95 µM.

With `CCCCCCCN1C(Nc2ccccc2)=NC[C@@H]1Cc1ccccc1`, the IC50 reads like this: (AlphaScreen, mean of runs) > 100 µM (inactive); under setting [1], > 100 µM; (FP, mean of runs) > 95 µM (inactive); under setting [2], > 95 µM; under setting [3], > 95 µM.

On to `CC(=O)Nc1ccc(Oc2cc(C#N)c(C#N)cc2N2CCOCC2)cc1`, for which the IC50 was > 100 µM (inactive) (AlphaScreen, mean of runs); > 100 µM under setting [1]; > 95 µM (inactive) (FP, mean of runs); > 95 µM under setting [2]; > 95 µM under setting [3].

Consider `CC(C)(C)c1nc(SCC(=O)NCc2ccco2)c2ccccc2n1`, for which the IC50 result (AlphaScreen, mean of runs) was “inactive”. The IC50 is 28 µM under setting [1]; > 95 µM (inactive) (FP, mean of runs); > 95 µM under setting [2]; > 95 µM under setting [3].

On to `Cc1cn([C@H]2C[C@H](O)[C@@H](CCC(=O)NCCc3ccc4ccccc4c3)O2)c(=O)[nH]c1=O`, for which the IC50 is, setting by setting: (AlphaScreen, mean of runs) > 100 µM (inactive); under setting [1], > 100 µM; (FP, mean of runs) > 95 µM (inactive); under setting [2], > 95 µM; under setting [3], > 95 µM.

Regarding `CCN(c1ccccc1)S(=O)(=O)c1ccc(C(=O)N(CCCN(C)C)c2nc3cc4c(cc3s2)OCO4)cc1`, under “AlphaScreen, mean of runs”, the IC50 result was “inactive”. In addition, the IC50 is 37.1 µM under setting [1]; > 95 µM (inactive) (FP, mean of runs); > 95 µM under setting [2]; > 95 µM under setting [3].

On to `Cc1nc2c(OCCC3CCCCC3)cccn2c1N(C)C(=O)CCC1CCCC1`, for which the IC50 is > 100 µM (inactive) (AlphaScreen, mean of runs); > 100 µM under setting [1]; > 95 µM (inactive) (FP, mean of runs); > 95 µM under setting [2]; > 95 µM under setting [3].

Take `CCOc1cc(C(=O)NCCN2CCOCC2)cc(OCC)c1OCC`: the IC50 (AlphaScreen, mean of runs) was > 100 µM (inactive); the IC50 under setting [1] is > 100 µM; the IC50 (FP, mean of runs) was > 95 µM (inactive); the IC50 under setting [2] was > 95 µM; the concentration for half-maximal inhibition (IC50) under setting [3] is > 95 µM.

Regarding `Cc1cc2cc(CNC(=O)c3ccco3)ccc2n1C`, the IC50 was > 100 µM (inactive) (AlphaScreen, mean of runs); > 100 µM under setting [1]; > 95 µM (inactive) (FP, mean of runs); > 95 µM under setting [2]; > 95 µM under setting [3].

As to `Nc1ncnc2[nH]c(=S)[nH]c12`, the IC50 is > 100 µM (inactive) (AlphaScreen, mean of runs); > 100 µM under setting [1]; > 95 µM (inactive) (FP, mean of runs); > 95 µM under setting [2]; > 95 µM under setting [3].

For `Cc1ccc2cc(CN(c3ccccc3C)S(=O)(=O)c3ccccc3)c(=O)[nH]c2c1`, the IC50 was > 100 µM (inactive) (AlphaScreen, mean of runs); > 100 µM under setting [1]; > 95 µM (inactive) (FP, mean of runs); > 95 µM under setting [2]; > 95 µM under setting [3].

Turning to `COc1cccc(C(=O)N2N=C(c3ccccc3)CC2(O)C(F)(F)F)c1` (stereo not given), the IC50 is > 100 µM (inactive) (AlphaScreen, mean of runs); > 100 µM under setting [1]; > 95 µM (inactive) (FP, mean of runs); > 95 µM under setting [2]; > 95 µM under setting [3].

`CCCCCc1c(-c2cccc(Cl)c2)ncn1CCc1ccccc1OC`: the IC50 runs as follows: (AlphaScreen, mean of runs) > 100 µM (inactive); under setting [1], > 100 µM; (FP, mean of runs) > 95 µM (inactive); under setting [2], > 95 µM; under setting [3], > 95 µM.

For the compound `CCn1c(=O)c(C(=O)NCCNCCO)c(O)c2ccccc21`, the IC50 was > 100 µM (inactive) (AlphaScreen, mean of runs); > 100 µM under setting [1]; > 95 µM (inactive) (FP, mean of runs); > 95 µM under setting [2]; > 95 µM under setting [3].

Turning to `Cn1c(=O)c2c(nc(OCc3cccnc3)n2Cc2ccccc2)n(C)c1=O`, the IC50 entry (AlphaScreen, mean of runs) is “inactive”. For the same compound, the IC50 is, setting by setting: under setting [1], 40.7 µM; (FP, mean of runs) > 95 µM (inactive); under setting [2], > 95 µM; under setting [3], > 95 µM.

Regarding `Cn1c(=O)c2[nH]c(COc3ccccc3)nc2n(C)c1=O`, the IC50 (AlphaScreen, mean of runs) was > 100 µM (inactive); the half-maximal inhibitory concentration (IC50) under setting [1] was > 100 µM; the IC50 (FP, mean of runs) is > 95 µM (inactive); the IC50 under setting [2] is > 95 µM; the IC50 under setting [3] was > 95 µM.

Consider `O=C(NCCN1CCOCC1)c1cc(-c2ccc(F)cc2)on1`, for which the IC50 runs as follows: (AlphaScreen, mean of runs) > 100 µM (inactive); under setting [1], > 100 µM; (FP, mean of runs) > 95 µM (inactive); under setting [2], > 95 µM; under setting [3], > 95 µM.

For `Cc1ccccc1-c1cnc(C(O)c2ccc(F)c(F)c2)[nH]1` (stereo not given), the IC50 is, setting by setting: (AlphaScreen, mean of runs) > 100 µM (inactive); under setting [1], > 100 µM; (FP, mean of runs) > 95 µM (inactive); under setting [2], > 95 µM; under setting [3], > 95 µM.

With `COc1ccc(C(=O)N2CCC(C(=O)NCc3ccccn3)CC2)cc1`, the IC50 (AlphaScreen, mean of runs) is > 100 µM (inactive); the concentration for half-maximal inhibition (IC50) under setting [1] is > 100 µM; the IC50 (FP, mean of runs) is > 95 µM (inactive); the IC50 under setting [2] is > 95 µM; the IC50 under setting [3] was > 95 µM.

For the compound `Cc1cnc(C(=O)OCC(=O)Nc2sc3c(c2C#N)CCC3)cn1`, the IC50 (AlphaScreen, mean of runs) is > 100 µM (inactive); the IC50 under setting [1] is > 100 µM; the IC50 (FP, mean of runs) was > 95 µM (inactive); the half-maximal inhibitory concentration (IC50) under setting [2] was > 95 µM; the IC50 under setting [3] is > 95 µM.

With `Cc1ccc(S(=O)(=O)NCC(=O)N(c2ccccc2)C(C(=O)NCc2ccccc2)c2ccco2)cc1` (stereo not given), the IC50 by setting is: (AlphaScreen, mean of runs) > 100 µM (inactive); under setting [1], > 100 µM; (FP, mean of runs) > 95 µM (inactive); under setting [2], > 95 µM; under setting [3], > 95 µM.

Regarding `O=C(Nc1cccc(S(=O)(=O)N2CCCCC2)c1)c1ccc([N+](=O)[O-])o1`, the IC50 runs as follows: (AlphaScreen, mean of runs) > 100 µM (inactive); under setting [1], > 100 µM; (FP, mean of runs) > 95 µM (inactive); under setting [2], > 95 µM; under setting [3], > 95 µM.

`COC(=O)CCCC1=CC2=CC(=O)C(C)(OC(=O)c3cccs3)C(=O)C2=CN1CCCOC(C)C` (stereo not given): the IC50 by setting is: (AlphaScreen, mean of runs) 5.63 µM; under setting [1], 5.63 µM; (FP, mean of runs) > 95 µM (inactive); under setting [2], > 95 µM; under setting [3], > 95 µM.

Turning to `O=C(NC1CC1)c1ccc(COc2ccc(F)cc2)o1`, the IC50 was > 100 µM (inactive) (AlphaScreen, mean of runs); > 100 µM under setting [1]; > 95 µM (inactive) (FP, mean of runs); > 95 µM under setting [2]; > 95 µM under setting [3].

Regarding `CCN(CCCNC(=O)CNC(=O)c1nn(-c2ccc(OC)cc2OC)c(=O)c2ccccc12)c1cccc(C)c1`, the IC50 is, setting by setting: (AlphaScreen, mean of runs) > 100 µM (inactive); under setting [1], > 100 µM; (FP, mean of runs) > 95 µM (inactive); under setting [2], > 95 µM; under setting [3], > 95 µM.

With `CSc1nc2ccccc2c(=O)n1C1CCOC(C)(C)C1` (stereo not given), the IC50 runs as follows: (AlphaScreen, mean of runs) > 100 µM (inactive); under setting [1], > 100 µM; (FP, mean of runs) > 95 µM (inactive); under setting [2], > 95 µM; under setting [3], > 95 µM.

Regarding `C/C(=N\NC(=O)c1cc(O)ccc1O)c1cccc(NC(=O)c2cccc(Cl)c2)c1`, the IC50 was > 100 µM (inactive) (AlphaScreen, mean of runs); > 100 µM under setting [1]; > 95 µM (inactive) (FP, mean of runs); > 95 µM under setting [2]; > 95 µM under setting [3].

For the compound `COc1cccc(-c2ccc3c(c2)N(Cc2ccccc2OC)C(=O)C(C)S3)c1` (stereo not given), the IC50 is > 100 µM (inactive) (AlphaScreen, mean of runs); > 100 µM under setting [1]; > 95 µM (inactive) (FP, mean of runs); > 95 µM under setting [2]; > 95 µM under setting [3].

For the compound `Cc1csc(NC(C)c2nc3cc(C(F)(F)F)ccc3n2CCOCCO)n1` (stereo not given), the IC50 by setting is: (AlphaScreen, mean of runs) > 100 µM (inactive); under setting [1], > 100 µM; (FP, mean of runs) > 95 µM (inactive); under setting [2], > 95 µM; under setting [3], > 95 µM.

Regarding `Cc1ccc(CN(CC(=O)NC2CCCCC2)C(=O)c2csnn2)cc1`, the IC50 by setting is: (AlphaScreen, mean of runs) > 100 µM (inactive); under setting [1], > 100 µM; (FP, mean of runs) > 95 µM (inactive); under setting [2], > 95 µM; under setting [3], > 95 µM.

Consider `O=C(COc1ccc(S(=O)(=O)N2CCCC2)cc1)Nc1ccc2c(c1)OCCO2`, for which the IC50 runs as follows: (AlphaScreen, mean of runs) > 100 µM (inactive); under setting [1], > 100 µM; (FP, mean of runs) > 95 µM (inactive); under setting [2], > 95 µM; under setting [3], > 95 µM.

On to `CC(C)Oc1ccc(F)cc1-c1cc(C(=O)NCc2ccc(F)cc2)[nH]n1`, for which the IC50 (AlphaScreen, mean of runs) was > 100 µM (inactive); the IC50 under setting [1] is > 100 µM; the IC50 (FP, mean of runs) is > 95 µM (inactive); the IC50 under setting [2] is > 95 µM; the half-maximal inhibitory concentration (IC50) under setting [3] was > 95 µM.
